From patent US20240336593A1, “Compound Having Antitumor Activity And Use Thereof” (lnnovStoneTherapeutics Limited, priority 2020, published 2024) come the findings set out here.

Each structure is given as a SMILES string.

Chain of PRMT5 (O14744 whole entry): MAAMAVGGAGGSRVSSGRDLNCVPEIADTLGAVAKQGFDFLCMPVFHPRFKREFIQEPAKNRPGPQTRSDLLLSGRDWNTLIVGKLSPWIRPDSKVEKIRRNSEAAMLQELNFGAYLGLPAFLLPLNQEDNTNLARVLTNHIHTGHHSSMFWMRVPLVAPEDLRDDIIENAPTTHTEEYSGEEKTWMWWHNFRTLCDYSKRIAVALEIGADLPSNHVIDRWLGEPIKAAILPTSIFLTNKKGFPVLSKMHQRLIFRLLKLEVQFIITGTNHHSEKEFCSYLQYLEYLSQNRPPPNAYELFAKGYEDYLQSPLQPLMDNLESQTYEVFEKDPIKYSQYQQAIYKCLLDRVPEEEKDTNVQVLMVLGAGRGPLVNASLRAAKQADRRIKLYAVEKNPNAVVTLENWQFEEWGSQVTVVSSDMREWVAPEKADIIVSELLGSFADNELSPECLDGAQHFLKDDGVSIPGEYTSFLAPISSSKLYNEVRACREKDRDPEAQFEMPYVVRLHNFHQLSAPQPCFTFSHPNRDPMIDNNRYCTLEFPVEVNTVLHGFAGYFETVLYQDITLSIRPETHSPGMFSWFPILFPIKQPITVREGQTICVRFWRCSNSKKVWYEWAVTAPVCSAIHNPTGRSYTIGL
Chain of PRMT5 (Q9BQA1 whole entry partner): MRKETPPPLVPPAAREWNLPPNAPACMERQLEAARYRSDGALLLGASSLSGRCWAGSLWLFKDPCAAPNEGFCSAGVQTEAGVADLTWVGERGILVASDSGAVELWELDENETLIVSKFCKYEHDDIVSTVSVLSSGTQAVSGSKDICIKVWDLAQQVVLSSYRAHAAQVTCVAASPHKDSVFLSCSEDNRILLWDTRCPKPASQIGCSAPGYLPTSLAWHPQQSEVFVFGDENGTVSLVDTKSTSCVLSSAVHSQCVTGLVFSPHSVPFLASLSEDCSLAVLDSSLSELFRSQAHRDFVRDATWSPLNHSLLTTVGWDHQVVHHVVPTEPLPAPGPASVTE

The experiment deals with PRMT5 (Homo sapiens (Human), UniProt O14744). The experiment is described as follows: Inhibitory activity against PRMT5 enzyme by radioisotopic method. The format is biochemical. The following applies: PRMT5 5 nM, [3H]-SAM 0.3 μM, polypeptide substrate GL-27 100 nM, room temperature. How it is done:
Test Example 1. Test on the inhibitory activity of the compounds of the invention against PRMT5 enzyme by radioisotopic method
Test method: A 1× enzyme reaction buffer (10 mM Tris 8.0 (Sigma, Cat. No. T2694-1L), 0.01% Tween-20 (Sigma, Cat. No. P2287-100 ML), 1 mM DTT (Sigma, Cat. No. D0632-10G)) was prepared. PRMT5 (Active Motif, Cat. No. 31921) and [3H]—SAM (PerkinElmer, Cat. No. NET155V001MC) were added to the 1×enzyme reaction buffer, to prepare a 25/15× mixed solution (PRMT5 final concentration: 5 nM, [3H]—SAM final concentration: 0.3 μM). 15 μL of this solution was transferred into a 384-well microplate (Corning 384-well Polypropylene Storage Microplates, Cat. No. 3657) with various concentrations of the compounds (DMSO final concentration 1%), and incubated at room temperature for 60 minutes. A polypeptide substrate, GL-27 (Ac-[…]-K (Biotin) (GL Biochem, Cat. No. 342095)), was added into the 1×enzyme reaction buffer to prepare a 25/10× substrate solution. Then 10 μL of the polypeptide substrate solution (final concentration of the polypeptide substrate: 100 nM) was added, a reaction was stirred at room temperature for 120 minutes, and then 5 μL 6× ice cold SAM (Sigma, Cat. No. A7007-100 MG) solution was added to stop the reaction (SAM final concentration: 0.125 mM). 25 µL of the reaction mixture was transferred into a FlashPlate (Streptavidin FlashPlate HTS PLUS, High Capacity, 384-well, Perkin Elmer, Cat. No. SMP410A001PK), and incubated at room temperature for 1 h. After washed three times with distilled water containing 0.1% Tween-20, the microplate was read on a MicroBeta reader for CPM data (Counts Per Minute). […] Then the inhibition rate Inh % (Y) corresponding to each concentration (X) was input in EXCEL, and the IC50 value (the half maximal inhibitory concentration) of each compound was calculated with the XLfit plug-in according to the built-in four-parameter fitting equation Y=Bottom+(Top-Bottom)/(1+(IC50/X)[…]).
By IC50 is commonly meant the point on the concentration scale where inhibition reaches its midpoint. The molecule `COc1ccc(Nc2cc(N3CC[C@H](N4CCc5ccccc5C4)[C@@H](O)C3)ncn2)cc1` (relative stereo) [Example 55, trans-4-(3,4-dihydroisoquinolin-2(1H)-yl)-1-(6-((4-methoxyphenyl)amino)pyrimidin-4-yl)piperidin-3-ol] yielded an IC50 of under 100 nM. As to `CC(C)(C)c1ccc(Nc2cc(N3CC[C@H](N4CCc5ccccc5C4)[C@@H](O)C3)ncn2)cc1` (relative stereo) [Example 39, trans-1-(6-((4-t-butylphenyl)amino)pyrimidin-4-yl)-4-(3,4-dihydroisoquinolin-2(1H)-yl)piperidin-3-ol], the IC50 is under 100 nM. Regarding `COCCN1CCC(Nc2cc(C(=O)N3CC[C@H](N4CCc5ccccc5C4)[C@@H](O)C3)ncn2)CC1` [Example 96], the IC50 was under 100 nM. For the molecule `CC(C)(C)OC(=O)N1CCC(Nc2cc(C(=O)N3CC[C@H](N4CCc5ccccc5C4)[C@@H](O)C3)ncn2)CC1` (relative stereo) [Example 110, t-butyl trans-4-((6-(4-(3,4-dihydroisoquinolin-2(1H)-yl)-3-hydroxypiperidine-1-carbonyl)pyrimidin-4-yl)amino)piperidine-1-carboxylate], the IC50 was under 100 nM. Molecule `CC(=O)N1CCC(Nc2cc(C(=O)N3CC[C@@H](N4CCc5ccccc5C4)[C@H](O)C3)nc(-c3ccc(C)s3)n2)CC1` [Example 153, 1-(4-((6-((3R,4R)-4-(3,4-dihydroisoquinolin-2(1H)-yl)-3-hydroxypiperidine-1-carbonyl)-2-(5-methylthiophen-2-yl)pyrimidin-4-yl)amino)piperidin-1-yl)ethan-1-one] came in with a 50% inhibitory concentration (IC50) of under 100 nM. On to `CC(=O)N1CCC(Nc2cc(C(=O)N3CC[C@@H](N4CCc5ccccc5C4)[C@H](O)C3)nc(OC3CCC(F)(F)CC3)n2)CC1` [Example 154, 1-(4-((2-((4,4-difluorocyclohexyl)oxy)-6-((3R,4R)-4-(3,4-dihydroisoquinolin-2(1H)-yl)-3-hydroxypiperidine-1-carbonyl)pyrimidin-4-yl)amino)-piperidin-1-yl)ethan-1-one], for which the IC50 was under 100 nM.

`CC(=O)N1CCC(Sc2cc(C(=O)N3CC[C@H](N4CCc5ccccc5C4)[C@@H](O)C3)ncn2)CC1` (relative stereo) [Example 119, trans-1-(4-((6-(4-(3,4-dihydroisoquinolin-2(1H)-yl)-3-hydroxypiperidine-1-carbonyl)pyrimidin-4-yl)thio)piperidin-1-yl)ethan-1-one] returned an IC50 of under 100 nM.

The molecule `O=C(c1cc(NC2CCN(C(=O)C3CC3)CC2)ncn1)N1CC[C@H](N2CCc3ccccc3C2)[C@@H](O)C1` (relative stereo) [Example 116, trans-(6-((1-(cyclopropanecarbonyl)piperidin-4-yl)amino)pyrimidin-4-yl)(4-(3,4-dihydroisoquinolin-2(1H)-yl)-3-hydroxypiperidin-1-yl)ketone] displayed a 50% inhibitory concentration (IC50) of under 100 nM.

`O[C@H]1CN(c2cc(Nc3ccc(Cl)cc3)ncn2)CC[C@@H]1N1CCc2ccccc2C1` (relative stereo) [Example 62, trans-4-(3,4-dihydroisoquinolin-2(1H)-yl)-1-(6-((4-chlorophenyl)amino)pyrimidin-4-yl)piperidin-3-ol] returned a half-maximal inhibitory concentration (IC50) of under 100 nM. Turning to `CC(C)(C)c1cccc(Nc2cc(N3CC[C@H](N4CCc5ccccc5C4)[C@@H](O)C3)ncn2)c1` (relative stereo) [Example 37, trans-1-(6-((3-t-butylphenyl)amino)pyrimidin-4-yl)-4-(3,4-dihydroisoquinolin-2(1H)-yl)piperidin-3-ol], the IC50 was under 100 nM. Regarding `CCC(CC)Oc1nc(NC2CCN(C(C)=O)CC2)cc(C(=O)N2CC[C@@H](N3CCc4ccccc4C3)[C@H](O)C2)n1` [Example 141, 1-(4-((6-((3R,4R)-4-(3,4-dihydro-4,4-dideuterium-isoquinolin-2(1H)-yl)-3-hydroxypiperidine-1-carbonyl)-2-(pentane-3-oxy)pyrimidin-4-yl)amino)piperidin-1-yl)-ethan-1-one], the IC50 is under 100 nM.
